# Experimental data taken from patent US20050222200A1, “AMIDE DERIVATIVES AS ION CHANNEL LIGANDS AND PHARMACEUTICAL COMPOSITIONS AND METHODS OF USING THE SAME” (Renovis, Inc., priority 2003, published 2005).
# What was measured:
# VR1 [1] = target: T1, VR1 (Rattus norvegicus, UniProt O35433); experiment: Whole-cell patch clamp electrophysiology: inhibition of capsaicin induced current in DRG neurons; type: cell-based, rats; set-up: Dorsal root ganglion (DRG) neurons were recovered from either neonatal or adult rats; endogenous in cells; host or cells: primary rat dorsal root ganglion neurons
# T1 sequence (O35433 whole entry): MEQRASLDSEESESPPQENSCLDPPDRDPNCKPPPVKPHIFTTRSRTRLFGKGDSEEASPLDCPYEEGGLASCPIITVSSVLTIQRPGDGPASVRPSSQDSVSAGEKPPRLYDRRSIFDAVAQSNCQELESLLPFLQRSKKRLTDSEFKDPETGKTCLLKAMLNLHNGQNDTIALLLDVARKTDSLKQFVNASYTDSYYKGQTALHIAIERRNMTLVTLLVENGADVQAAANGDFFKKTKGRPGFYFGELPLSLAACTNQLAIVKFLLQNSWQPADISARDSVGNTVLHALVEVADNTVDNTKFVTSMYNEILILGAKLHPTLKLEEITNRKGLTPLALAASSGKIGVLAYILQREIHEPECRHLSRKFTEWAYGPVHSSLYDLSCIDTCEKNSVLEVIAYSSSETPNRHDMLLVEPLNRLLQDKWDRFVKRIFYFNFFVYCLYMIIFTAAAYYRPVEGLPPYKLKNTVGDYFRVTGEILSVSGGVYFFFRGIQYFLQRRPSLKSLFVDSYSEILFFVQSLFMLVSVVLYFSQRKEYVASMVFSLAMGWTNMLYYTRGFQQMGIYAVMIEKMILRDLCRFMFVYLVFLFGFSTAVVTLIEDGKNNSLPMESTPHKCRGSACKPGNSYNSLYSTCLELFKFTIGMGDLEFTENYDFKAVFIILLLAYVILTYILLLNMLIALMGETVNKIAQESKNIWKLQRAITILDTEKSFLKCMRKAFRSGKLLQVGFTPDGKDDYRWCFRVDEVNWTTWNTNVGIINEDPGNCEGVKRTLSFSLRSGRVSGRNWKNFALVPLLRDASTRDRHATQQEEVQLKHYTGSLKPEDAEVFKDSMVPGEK
# Text: Whole-cell patch clamp electrophysiology
# Dorsal root ganglion (DRG) neurons were recovered from either neonatal or adult rats and plated onto poly-D-lysine coated glass coverslips. The plated neurons were transferred into a chamber to allow drug solutions to be added to the cells using a computer-controlled solenoid-valve based perfusion system. The cells were imaged using standard DIC optics. Cells were patched using finely-pulled glass electrodes. Voltage-clamp electrophysiology experiments were carried out using an Axon Instruments Multiclamp amplified controlled by pCLAMP8 software.
# The cells were placed into a whole-cell voltage clamp and held at a voltage of –80mV while monitoring the membrane current in gap-free recording mode.
# 500nM capsaicin was added for 30 seconds as a control. Test compounds at various concentrations were added to the cells for 1 minute prior to a 30 second capsaicin application. Differences between control experiments and drug positive capsaicin experiments were used to determine the efficacy of each test compound. All compounds that inhibited capsaicin induced current greater than 50% were considered positives.
# VR1 [2] = target: T1, VR1; experiment: Calcium imaging assay: inhibition of capsaicin induced calcium influx in DRG neurons (Fura2, microscope); type: cell-based; set-up: endogenous in cells; host or cells: DRG neurons; settings: for inhibition of calcium ion influx induced by capsaicin stimulation: class symbols per legend
# How it was run: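 Fura2-loaded rat DRG neurons imaged by microscope; test compound perfused 1 min, then capsaicin (250 nM) applied with compound for 20–60 s. Calcium influx followed as 340/380 nm fluorescence ratio; inhibition above 75% scored positive.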
SMILES,inhibition of calcium ion influx induced by capsaicin stimulation (VR1 [2]),other results
COc1cc(NC(=O)c2ccc(/C=C/C(C)C)cc2)cc(C(F)(F)F)c1 [Compound 155],–,"inhibition at 0.1 µM (VR1 [1]; DRG neuron, concentration 100 nM, treatment time 20 seconds, 500nM capsaicin, held at -80mV, DRG neurons): 50%; calcium influx in neurons, capsaicin in presence of compound vs capsaicin alone (Figure 2) (VR1 [1]; same neurons, capsaicin alone as comparison): less calcium influx; inhibition at 0.3 µM (VR1 [2]; DRG neuron, concentration 300 nM, treatment time 20 sec, capsaicin 250 nM, DRG neurons): < 75%; fluorescence reflecting calcium ion influx when administered with capsaicin (Figure 1) (VR1 [2]; administered with capsaicin): reduced"
CC(C)(C)C#Cc1ccc(C(=O)Nc2cccc(C(F)(F)F)c2)cn1 [Compound 424],+++ (compound exhibited 50-75% inhibition of calcium ion influx induced by capsaicin stimulation),–
CC(C)(C)C#Cc1ccc(C(=O)Nc2ccc(OC(F)(F)F)cc2)cn1 [Compound 425],+ (compound exhibited 0-25% inhibition of calcium ion influx induced by capsaicin stimulation),–
CC(C)(C)C#Cc1ccc(C(=O)Nc2ccc(S(C)(=O)=O)cc2)cn1 [Compound 427],++ (compound exhibited 25-50% inhibition of calcium ion influx induced by capsaicin stimulation),–
CC(C)(C)C#Cc1ccc(C(=O)Nc2cccc3cnccc23)cn1 [Compound 428],++++ (compound exhibited 75% or greater inhibition of calcium ion influx induced by capsaicin stimulation),–
CC(C)(C)C#Cc1ccc(C(=O)Nc2cnc3ccccc3c2)cn1 [Compound 429],++++ (compound exhibited 75% or greater inhibition of calcium ion influx induced by capsaicin stimulation),–
CCN(CC)c1ccc(NC(=O)c2ccc(C#CC(C)(C)C)nc2)cc1 [Compound 430],+ (compound exhibited 0-25% inhibition of calcium ion influx induced by capsaicin stimulation),–
Cc1ccc(NC(=O)c2ccc(C#CC(C)(C)C)nc2)nc1 [Compound 432],+ (compound exhibited 0-25% inhibition of calcium ion influx induced by capsaicin stimulation),–
CC(C)(C)C#Cc1ccc(C(=O)Nc2ccc(C(F)(F)F)cn2)cn1 [Compound 433],++ (compound exhibited 25-50% inhibition of calcium ion influx induced by capsaicin stimulation),–
CC(C)(C)C#Cc1ccc(C(=O)Nc2ccc(Cl)nc2)cn1 [Compound 434],+ (compound exhibited 0-25% inhibition of calcium ion influx induced by capsaicin stimulation),–
COc1ccc(NC(=O)c2ccc(C#CC(C)(C)C)nc2)cn1 [Compound 435],+ (compound exhibited 0-25% inhibition of calcium ion influx induced by capsaicin stimulation),–
Cn1ccc2cc(NC(=O)c3ccc(C#CC(C)(C)C)nc3)ccc21 [Compound 437],++++ (compound exhibited 75% or greater inhibition of calcium ion influx induced by capsaicin stimulation),–
CC(C)(C)C#Cc1ccc(C(=O)Nc2ccc3c(c2)OCO3)cn1 [Compound 438],++++ (compound exhibited 75% or greater inhibition of calcium ion influx induced by capsaicin stimulation),–
